Patent US11478440B2, “Combination of Elafibranor or derivatives thereof with an anti-NASH, anti-fibrotic or anti-cholestatic agent” (GENFIT, priority 2017, dated 2022)

Tested on: fibrosing NASH-model of rats fed a CDAA+1% cholesterol diet
Test: Chronic CDAA+1% cholesterol rat model: hepatic collagen content (hydroxyproline)
Type: in vivo, Wistar rats
Conditions: GFT505 3 mg/kg/d, OCA 10 mg/kg/d, alone or combined; 12 weeks in diet
Protocol: The preventive effects of Elafibranor alone, OCA alone and the combination of both were assessed in a fibrosing NASH-model of rats fed a CDAA+1% cholesterol diet. 150-175 g male Wistar rats were fed a control (CSAA) diet, CDAA+1% cholesterol diet, or CDAA+1% cholesterol diet supplemented with Elafibranor 1, 3 and 10 mg/kg/day, OCA 10 and 30 mg/kg/day or combined drugs (Elafibranor 1, 3 and 10 mg/kg/day combined to OCA 10 mg/kg/day) for 12 weeks.
The body weight and the food intake were monitored twice per week. On the last day of treatment, rats were sacrificed after a 6 h fasting period. The liver was rapidly excised for biochemical and histological studies.
The hepatic collagen content was determined using the appropriate QuickZyme kit (Total collagen assay, cat #QZB-totcol2). The assay is based on the detection of hydroxyproline, which is a non-proteinogenic amino acid mainly found in the triple helix of collagen. Thus, hydroxyproline in tissue hydrolysates can be used as a direct measure of the amount of collagen present in the tissue (without discrimination between procollagen, mature collagen and collagen degradation products).
Complete hydrolysis of tissue samples in 6M HCl at 95° C. is required before dosing the hydroxyproline. The assay results in the generation of a chromogen with a maximum absorbance at 570 nm. Results are expressed as mg of collagen/g of liver.

Substance: 1-[4-methylthiophenyl]-3-[3,5-dimethyl-4-carboxydimethylmethyloxyphenyl]prop-2-en-1-one [Elafibranor]
- Hepatic collagen content, percentage over the untreated CDAA + 1% cholesterol rats: 45% ± 12%
